This is an account of results in patent US9901577B2, “Oxoquinazolinyl-butanamide derivatives” (MERCK PATENT GMBH, priority 2013, dated 2018).

For one experiment, the target named is T1, TNKS2 (Homo sapiens, UniProt Q9H2K2).
T1 construct: GST-tagged Tnks-2 (873-1166 aa, prepared in-house); made in house
Description: TNKS2 activity ELISA (autoparsylation assay). In kind it is biochemical. Here is the method:
(§1) Description of the TNKS1 and TNKS2 ELISA Assay
(§2) Biochemical Activity Testing of TNKS 1 and 2: Activity ELISA (Autoparsylation Assay)
(§3) For analysis of autoparsylation activity of TNKS 1 and 2 an activity ELISA iss performed: In the first step GST tagged TNKS is captured on a Glutathione coated plate. Then the activity assay with biotinylated NAD is performed in the absence/presence of the compounds. During the enzymatic reaction GST tagged TNKS transfers biotinylated ADP-ribose to itself from biotinylated NAD as co-substrate. For the detection streptavidin-HRP conjugate is added that binds to the biotinylated TNKS and is thereby captured to the plates. The amount of biotinylated resp. autoparsylated TNKS is detected with a luminescence substrate for HRP. The level of the luminescence signal correlates directly with the amount of autoparsylated TNKS and therefore with activity of TNKS.
(§4) The activity ELISA is performed in 384 well Glutathione coated microtiter plates (Express capture Glutathione coated plate, Biocat, Heidelberg, Germany). The plates are pre-equilibrated with PBS. […] The plates are washed 3 times with PBS-Tween-20. The wells are blocked by incubation at room temperature for 20 minutes with 50 μl blocking buffer (PBS, 0.05% Tween-20, 0.5% BSA). Afterwards the plates are washed 3 times with PBS-Tween-20. […] The reaction is stopped by 3 times washing with PBS-Tween-20. For the detection 50 μl of 20 ng/μl Streptavidin, HRP conjugate (MoBiTec, Göttingen, Germany) in PBS/0.05% Tween-20/0.01% BSA are added and the plates are incubated for 30 minutes at room temperature. After three times washing with PBS-Tween-20 50 μl of SuperSignal ELISA Femto Maximum sensitivity substrate solution (ThermoFisherScientific (Pierce), Bonn, Germany) are added. Following a 1 minute incubation at room temperature luminescence signals are measured with an Envision multimode reader (Perkin Elmer LAS Germany GmbH) at 700 nm. The full value used is the inhibitor-free reaction. […] The inhibitory values (IC50) are determined using either the program Symyx Assay Explorer® or Condosseo® from GeneData.

The next experiment concerns the target T2, PARP-1 (Homo sapiens, UniProt P09874).
T2 construct: purchased Enzo Life Sciences GmbH, Lörrach, Germany
Description: PARP-1 autoparsylation assay (HTRF). In kind it is biochemical. Conditions: His-tagged Parp-1, autoparsylation.

In another experiment the target is T3, TNKS1 (Homo sapiens, UniProt O95271).
T3 construct: GST-tagged Tnks-1 (1023-1327 aa, prepared in-house); made in house
Description: TNKS1 activity ELISA (autoparsylation assay). In kind it is biochemical. Here is the method: as §1, §2, §3, §4
For orientation: In an ELISA, binding on a coated surface is turned into a signal by an enzyme label.

Experiment [1] concerns T4, Tankyrase.
T4 construct: TNKS cellular assay; other: DLD1 cells, Axin2 increase, 24 hours
As to the kind of experiment: Measurement of cellular inhibition of Tankyrase (Axin2 level in DLD1 cells, Luminex based assay). Conditions: read-out: EC50 [M] TNKS cellular assay; DLD1 cells, Axin2 increase, 24 hours. The format is cell-based. How it is done:
(§5) Measurement of Cellular Inhibition of Tankyrase
(§6) Cells of the colon carcinoma cell line DLD1 are plated in 96 well plates with 1.5×10^4 cells per well. Next day, cells are treated with a serial dilution of test compound in seven steps as triplicates with a final DMSO concentration of 0.3%. […] The amount of isolated Axin2 protein is determined in a Luminex^200 machine (Luminex Corporation) according to the manufacturer's instruction by counting 100 events per well. […] As controls cells are treated with solvent alone (neutral control) and with a Tankyrase reference inhibitor IWR-2 (3E-06 M) which refers as control for maximum increase of Axin2. For analysis, the obtained data are normalized against the untreated solvent control and fitted for determination of the EC50 values using the Assay Explorer software (Accelrys).

A further experiment concerns DLD-1-cancer cells. Conditions: Huang et al., 2009; cited from earlier work.
The next experiment deals with β-catenin. Conditions: by increasing the levels of AXIN1 and AXIN2 proteins; cited from earlier work.
In experiment [2] the test system is Tankyrase. Description: Measurement of cellular inhibition of Tankyrase (Axin2 level in DLD1 cells, Luminex based assay). In kind it is cell-based. To be noted: for EC50: prior art compounds. Here is the method: as §5, §6
[3] abbreviates: GST-tagged Tnks-2, read-out: IC50 [M] TNKS2 ELISA.
Setting [4] is: GST-tagged Tnks-1, read-out: IC50 [M] TNKS1 ELISA.
Setting [5] is: prior art compounds, read-out: IC50 (TNKS1).

Read-outs that look alike come from different tables or passages of the source.

T3 sequence (O95271 1023-1327): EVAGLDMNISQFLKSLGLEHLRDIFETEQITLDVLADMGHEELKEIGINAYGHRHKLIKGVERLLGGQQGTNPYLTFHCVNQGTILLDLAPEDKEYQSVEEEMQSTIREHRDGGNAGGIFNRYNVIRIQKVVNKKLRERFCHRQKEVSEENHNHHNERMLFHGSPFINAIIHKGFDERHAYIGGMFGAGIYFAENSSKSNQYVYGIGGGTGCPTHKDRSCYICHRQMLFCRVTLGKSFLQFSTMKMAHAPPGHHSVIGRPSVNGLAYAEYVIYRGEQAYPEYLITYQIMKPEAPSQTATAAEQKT
T2 sequence (P09874 whole entry): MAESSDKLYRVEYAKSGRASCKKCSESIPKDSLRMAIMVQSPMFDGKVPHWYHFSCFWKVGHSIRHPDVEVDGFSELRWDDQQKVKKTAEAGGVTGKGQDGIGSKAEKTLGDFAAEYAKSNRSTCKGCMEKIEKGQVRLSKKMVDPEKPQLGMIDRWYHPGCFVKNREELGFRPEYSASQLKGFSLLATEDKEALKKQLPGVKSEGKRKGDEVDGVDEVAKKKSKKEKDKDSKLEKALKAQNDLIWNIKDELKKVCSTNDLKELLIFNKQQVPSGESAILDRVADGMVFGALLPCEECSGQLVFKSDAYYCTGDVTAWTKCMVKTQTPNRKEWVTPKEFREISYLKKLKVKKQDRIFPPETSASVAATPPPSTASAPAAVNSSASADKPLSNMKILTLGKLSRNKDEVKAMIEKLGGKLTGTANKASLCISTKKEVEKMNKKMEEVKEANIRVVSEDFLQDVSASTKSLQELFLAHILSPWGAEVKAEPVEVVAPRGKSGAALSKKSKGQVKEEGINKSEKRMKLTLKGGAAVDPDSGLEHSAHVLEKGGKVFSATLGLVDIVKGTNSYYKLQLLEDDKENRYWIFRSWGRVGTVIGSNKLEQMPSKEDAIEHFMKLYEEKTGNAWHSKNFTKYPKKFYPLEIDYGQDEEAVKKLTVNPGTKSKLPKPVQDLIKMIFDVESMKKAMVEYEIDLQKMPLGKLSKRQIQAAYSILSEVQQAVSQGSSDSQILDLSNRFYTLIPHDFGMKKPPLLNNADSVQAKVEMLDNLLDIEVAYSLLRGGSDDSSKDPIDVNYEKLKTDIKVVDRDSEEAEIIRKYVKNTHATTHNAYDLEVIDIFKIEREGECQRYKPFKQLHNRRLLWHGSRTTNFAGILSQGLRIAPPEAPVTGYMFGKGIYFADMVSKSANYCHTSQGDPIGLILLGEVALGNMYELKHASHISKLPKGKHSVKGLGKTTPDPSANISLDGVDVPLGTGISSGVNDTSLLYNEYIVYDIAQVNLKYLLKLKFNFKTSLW
T1 sequence (Q9H2K2 873-1166): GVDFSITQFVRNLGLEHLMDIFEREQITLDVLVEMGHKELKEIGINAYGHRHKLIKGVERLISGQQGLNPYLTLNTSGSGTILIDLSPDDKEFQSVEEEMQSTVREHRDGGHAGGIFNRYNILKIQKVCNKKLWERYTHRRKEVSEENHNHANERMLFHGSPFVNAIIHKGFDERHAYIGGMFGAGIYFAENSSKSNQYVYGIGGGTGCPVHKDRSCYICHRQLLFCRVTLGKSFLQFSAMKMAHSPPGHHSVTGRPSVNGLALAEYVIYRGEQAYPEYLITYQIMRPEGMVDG

For orientation: IC50 means the concentration that gives 50% inhibition. What is called EC50 is the concentration needed to bring the measured effect to its halfway point. Turning to `Nc1ncc(C2CCN(C(=O)CCCc3nc4c(F)cccc4c(=O)[nH]3)CC2)cc1-c1ncccn1` [Compound A35, 2-[4-(6-Amino-5-pyrimidin-2-yl-3′,4′,5′,6′-tetrahydro-2′H-[3,4]bipyridinyl-1′-yl)-4-oxo-butyl]-8-fluoro-3H-quinazolin-4-one], the IC50 at TNKS2 (setting [3]) was found to be 1.6e-10 M; on PARP-1, 1400 nM; at TNKS1 (setting [4]) it was 4.9e-10 M. Moreover, the EC50 with Tankyrase [1] stood at 1.8e-09 M.

Regarding `N#Cc1cc(C2CCN(C(=O)CCCc3nc4ccccc4c(=O)[nH]3)CC2)cnc1N` [Compound A36, 6-Amino-1′-[4-(4-oxo-3,4-dihydro-quinazolin-2-yl)-butyryl]-1′,2′,3′,4′,5′,6-hexahydro-[3,4]bipyridinyl-5-carbonitrile], the IC50 on TNKS2 is 1.1e-09 M; on PARP-1, 1100 nM; against TNKS1, 1.9e-09 M. The EC50 with Tankyrase [1] turned out to be 2e-08 M.

With `Cn1cc(C(=O)C2CCN(C(=O)CCCc3nc4ccccc4c(=O)[nH]3)CC2)cn1` [Compound A41, 2-{4-[4-(1-Methyl-1H-pyrazole-4-carbonyl)-piperidin-1-yl]-4-oxo-butyl}-3H-quinazolin-4-one], the IC50 came to 3.3e-10 M on TNKS2 (setting [3]), 2100 nM against PARP-1 and 5.8e-10 M at TNKS1 (setting [4]). Also, in the experiment with Tankyrase [1], the EC50 was found to be 9e-09 M.

For the compound `Oc1nc(-c2ccc(C(F)(F)F)cc2)nc2c1CSCC2` [XAV939], in the experiment on DLD-1-cancer cells, the “growth of DLD-1-cancer cells” value is “inhibits growth”. For the same compound, the “Wnt-stimulated accumulation of β-catenin” value in the experiment on β-catenin was “blocked Wnt-stimulated accumulation of β-catenin”.

With `O=c1[nH]c(-c2ccc3c(c2)OCO3)nc2ccccc12` [reference compound], the IC50 on TNKS2 (prior art compounds, read-out: IC50 (TNKS2)) came out at 6e-07 M; on TNKS1 (setting [5]), 5.9e-07 M. Moreover, in the experiment with Tankyrase [2] (at 30 μM, prior art compound), the “cellular assay: effect” value is on record as “no effect”.

For the compound `COc1ccc(C(=O)C2CCN(CC(=O)N(Cc3nc4c(c(=O)[nH]3)COCC4)CC3CC3)CC2)cc1` [reference compound], the IC50 on TNKS1 (setting [5]) was found to be 2e-09 M. This compound gave an EC50 with Tankyrase [2] of 35 nM.

For the compound `COc1ccccc1NC(=O)c1ccc(NC(=O)CCc2nc3ccccc3c(=O)[nH]2)cc1` [reference compound], the IC50 on TNKS1 (setting [5]) stood at 7.4e-09 M. In the experiment on Tankyrase [2], this compound showed an EC50 of 320 nM.
